Laboratory results published in PubChem BioAssay (NCI).
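96-well plates; 48 h exposure; 5 concentrations. Endpoints by linear interpolation between flanking doses. Not reached: highest tested concentration assigned. TGI: concentration producing complete growth inhibition.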 Where a SMILES comes first, the peptide text is derived from it. The star is where a group is joined. Boc = CC(C)(C)OC(=O)*; OBn = c1ccc(CO*)cc1; Bn = c1ccc(C*)cc1

Legend:
Assay in all cases: inhibition of tumour cell growth, NCI panel, 48 h
[1] = test system: RXF 393 renal
[2] = test system: HCT-15 colon
[3] = test system: HCT-116 colon
[4] = test system: IGROV1 ovarian
[5] = test system: PC-3 prostate
[6] = test system: KM12 colon
[7] = test system: MOLT-4 leukemia
[8] = test system: EKVX NSCLC
[9] = test system: U251 CNS
[10] = test system: MCF7 breast
[11] = test system: T-47D breast

In the case of `CS(=O)(=O)c1nc(-c2cc3c(c(S(C)(=O)=O)n2)CCC3)cc2c1CCC2`, the TGI [1] was over 100 µM, the TGI [2] was over 100 µM and the TGI [3] was over 100 µM. It also gave a TGI [4] of 85.1 µM, a TGI [5] of over 100 µM and a TGI [6] of over 100 µM. The TGI [7] was over 100 µM, the TGI [8] was over 100 µM and the TGI [9] was over 100 µM.

`O=C(/C=C/c1ccccc1O)CC(=O)/C=C/c1ccccc1O` was tested, and the TGI [1] was 9.06 µM, the TGI [2] was 19.9 µM and the TGI [3] was 7.42 µM. It also gave a TGI [4] of 25.7 µM, a TGI [7] of over 31.6 µM and a TGI [10] of 7.61 µM. For the same compound, the TGI [8] was 31.3 µM, the TGI [11] was over 31.6 µM and the TGI [9] was 13 µM.

`O=C1CCCc2ccc3c(c21)CC1(Cc2cc4c(cc2C1)CCCC4)C3` gave a TGI [1] of 32 µM, a TGI [2] of 61.3 µM and a TGI [3] of 34.6 µM. For the same compound, the TGI [4] was 54.6 µM, the TGI [6] was 66.3 µM and the TGI [7] was 37.4 µM. For the same compound, the TGI [10] was 56.7 µM, the TGI [8] was 81.9 µM and the TGI [11] was 23.2 µM. For the same compound, the TGI [9] was 44.4 µM.

For `N.N.NCCCCN.O=C([O-])CCl.O=C([O-])CCl.O=C([O-])CCl.O=C([O-])CCl.[Pt+4].[Pt+4]`, the TGI [1] was over 50 µM, the TGI [2] was over 50 µM and the TGI [3] was over 50 µM. For the same compound, the TGI [4] was over 50 µM, the TGI [6] was over 50 µM and the TGI [7] was over 50 µM. It also gave a TGI [8] of over 50 µM and a TGI [9] of over 50 µM.

`CC12CCC3=C(CSC4=C3CSc3ccccc34)C1=CCCC2=O` (stereo not drawn) was tested, and the TGI [1] was over 100 µM, the TGI [2] was over 100 µM and the TGI [3] was over 100 µM. The TGI [6] was over 100 µM, the TGI [7] was over 100 µM and the TGI [8] was over 100 µM. The TGI [9] was over 100 µM.

Compound `C(=C/c1ccc2nc(-c3ccc(/C=C/C=N/NC4=NCCCN4)cc3)cn2c1)/C=N/NC1=NCCCN1` has a TGI [1] of 48.6 µM, a TGI [2] of over 100 µM and a TGI [3] of over 100 µM. For the same compound, the TGI [4] was over 100 µM, the TGI [5] was 67.4 µM and the TGI [6] was over 100 µM. The TGI [7] was over 100 µM, the TGI [8] was 35.7 µM and the TGI [11] was over 100 µM. The TGI [9] was over 100 µM.

Work on `COc1cc(C(C)(C)C)c(OC(=O)/C=C/C(=O)O/C=C/[N+](=O)[O-])c(C(C)(C)C)c1` yielded a TGI [1] of 81.7 µM, a TGI [2] of 48.4 µM and a TGI [3] of over 100 µM. The TGI [4] was over 100 µM, the TGI [6] was 38.5 µM and the TGI [7] was over 100 µM. It also gave a TGI [10] of 40.4 µM, a TGI [8] of over 100 µM and a TGI [11] of over 100 µM. For the same compound, the TGI [9] was over 100 µM.

`COc1ccc(/C=N/N=C(N)N)c(C(=O)O)c1OC` showed a TGI [1] of over 100 µM, a TGI [2] of over 100 µM and a TGI [3] of over 100 µM. For the same compound, the TGI [4] was over 10 µM, the TGI [6] was over 100 µM and the TGI [7] was over 100 µM. It also gave a TGI [8] of over 100 µM and a TGI [9] of over 100 µM.

Compound `COc1c2c(cc3oc(=O)ccc13)OC(C)(C)C=C2` has a TGI [2] of 65.5 µM, a TGI [3] of 40.8 µM and a TGI [4] of 75.7 µM. It also gave a TGI [6] of 48.5 µM, a TGI [7] of 59.1 µM and a TGI [10] of 57.8 µM. It also gave a TGI [8] of over 125 µM, a TGI [11] of 23.6 µM and a TGI [9] of 78.5 µM.

Compound `CCCc1c(OC)c(O)c2c(=O)cc(OC)c3c4c(OC)cc(=O)c5c(O)c(OC)c(CCC)c(c1c23)c54` has a TGI [2] of 22.9 µM, a TGI [3] of 13.2 µM and a TGI [4] of 16.2 µM. The TGI [5] was 11.9 µM, the TGI [6] was 53.7 µM and the TGI [7] was 5.69 µM. The TGI [10] was 26.5 µM, the TGI [8] was 15.3 µM and the TGI [9] was 6.41 µM.

Compound `CCOC(=O)Cn1c(=O)c2cc(C)cc3c(Cl)nc4c(OC)c(OC)cc1c4c32` has a TGI [1] of over 100 µM, a TGI [2] of over 100 µM and a TGI [3] of over 100 µM. For the same compound, the TGI [4] was over 100 µM, the TGI [5] was over 100 µM and the TGI [6] was over 100 µM. The TGI [7] was over 100 µM, the TGI [10] was over 100 µM and the TGI [8] was over 100 µM. It also gave a TGI [9] of over 100 µM.

Compound `NC(=O)NC1=NCCC(=O)N1CCc1c[nH]c2ccccc12` has a TGI [1] of 48.3 µM, a TGI [2] of 73 µM and a TGI [3] of 26.4 µM. The TGI [4] was 42.1 µM, the TGI [5] was 28.3 µM and the TGI [6] was 52.4 µM. It also gave a TGI [7] of 39.1 µM, a TGI [8] of 48.6 µM and a TGI [11] of 65.5 µM. It also gave a TGI [9] of over 100 µM.

Work on `Cc1ccc(N=c2oc3c(ccc4ccccc43)nc2Nc2ccc(C)cc2)cc1` yielded a TGI [1] of over 100 µM, a TGI [2] of over 100 µM and a TGI [3] of over 100 µM. The TGI [4] was over 100 µM, the TGI [5] was over 100 µM and the TGI [6] was over 100 µM. It also gave a TGI [7] of over 100 µM, a TGI [8] of over 100 µM and a TGI [11] of over 100 µM. For the same compound, the TGI [9] was over 100 µM.

With `CCNc1nc2ccccc2nc1NCC` the TGI [1] was over 100 µM, the TGI [2] was over 100 µM and the TGI [3] was over 100 µM. For the same compound, the TGI [4] was over 100 µM, the TGI [5] was over 100 µM and the TGI [6] was over 100 µM. It also gave a TGI [7] of over 100 µM, a TGI [10] of over 100 µM and a TGI [8] of over 100 µM. It also gave a TGI [9] of over 100 µM.

`CN(C)CCNc1ccccn1` showed a TGI [1] of over 100 µM, a TGI [2] of over 100 µM and a TGI [3] of over 100 µM. For the same compound, the TGI [4] was over 100 µM, the TGI [5] was over 100 µM and the TGI [6] was over 100 µM. The TGI [7] was over 100 µM, the TGI [8] was over 100 µM and the TGI [11] was over 100 µM. It also gave a TGI [9] of over 100 µM.

Work on `CSCC[C@@H](NC(=O)[C@H](CC(C)C)NC(=O)C(Cc1cnc[nH]1)NC(=O)CNC(=O)[C@@H](NC(=O)[C@H](C)NC(=O)[C@H](Cc1cn(C=O)c2ccccc12)NC(=O)[C@H](CCC(N)=O)NC(=O)[C@@H](N)CC(N)=O)C(C)C)C(N)=O` (stereo partly drawn) yielded a TGI [1] of over 100 µM, a TGI [2] of over 100 µM and a TGI [3] of over 100 µM. The TGI [4] was over 100 µM, the TGI [6] was over 100 µM and the TGI [7] was over 100 µM. It also gave a TGI [10] of over 100 µM, a TGI [8] of over 100 µM and a TGI [9] of over 100 µM.

`CC(C)CC(NC(=O)C(CCC(=O)OCc1ccccc1)NC(=O)OC(C)(C)C)C(=O)NC(COCc1ccccc1)C(=O)NC(Cc1ccccc1)C(=O)O` (stereo not drawn) (Boc-E(OBn)LS(Bn)F-OH; configuration not given here) was tested, and the TGI [1] was over 100 µM, the TGI [2] was over 100 µM and the TGI [3] was over 100 µM. It also gave a TGI [4] of over 100 µM, a TGI [5] of over 100 µM and a TGI [6] of over 100 µM. The TGI [7] was over 100 µM, the TGI [10] was over 100 µM and the TGI [8] was over 100 µM. For the same compound, the TGI [9] was over 100 µM.
